# According to patent US20050009840A1 (SUGEN, INC., priority 2003, published 2005):
# Values joined by “and” are separate entries in the source; they are usually repeats but may differ in a detail not shown here. Equal values may be shown once.
# Target: T1, Met kinase domain (GST fusion protein) (Homo sapiens, UniProt P08581)
# T1 construct: Purified GST fusion protein containing the Met kinase domain
# Assay: Met transphosphorylation assay (ELISA, poly(glu-tyr) substrate);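 note: Cell-free ELISA with plate-bound poly(Glu:Tyr 4:1) phosphorylated by GST-fused Met kinase domain plus ATP and Mn2+, phosphotyrosine detected by anti-phosphotyrosine antibody with HRP and ABTS read-out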
# Assay type: biochemical
# Conditions: read-out: Met IC50
# T1 sequence (P08581 1078-1345 limits assumed): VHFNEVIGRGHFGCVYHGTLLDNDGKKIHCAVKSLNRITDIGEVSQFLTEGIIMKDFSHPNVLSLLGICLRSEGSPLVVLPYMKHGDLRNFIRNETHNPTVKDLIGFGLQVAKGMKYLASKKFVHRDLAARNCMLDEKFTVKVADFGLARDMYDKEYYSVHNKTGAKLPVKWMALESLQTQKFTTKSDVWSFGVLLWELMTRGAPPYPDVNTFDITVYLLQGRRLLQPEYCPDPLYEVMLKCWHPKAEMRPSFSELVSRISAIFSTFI
row,Structure (SMILES),IC50
1,"Nc1ncc(-c2ccc(C(=O)N3CCC[C@@H]3CN3CCCC3)cc2)cc1OCc1cccc(F)c1C(F)(F)F [Example I-116, {4-(6-Amino-5-(3-fluoro-2-trifluoromethyl-benzyloxy)-pyridin-3-yl]-phenyl}-[(2R)-2-pyrrolidin-1-ylmethyl-pyrrolidin-1-yl]-methanone]",0.025 µM
2,"Nc1ncc(-c2ccc(O)cc2)cc1OCc1c(F)cccc1F [Example I-118, 4-[6-Amino-5-(2,6-difluoro-benzyloxy)-pyridin-3-yl]-phenyl]",3.79 µM
3,"Nc1ncc(-c2cccc3[nH]ccc23)cc1OCc1c(F)cccc1F [Example I-119, 3-(2,6-Difluoro-benzyloxy)-5-(1H-indol-4-yl)-pyridin-2-ylamine]",5.8 µM
4,Nc1ncc(-c2ccc(C(=O)N3CCC[C@@H]3CN3CCCC3)cc2)cc1OCc1c(F)cccc1F [Example I-122],1.21 µM
5,"Nc1ncc(-c2ccc(C(=O)N3CCC[C@H]3CN3CCCC3)cc2)cc1OCc1c(F)cccc1F [Example I-123, {4-[6-Amino-5-(2,6-difluoro-benzyloxy)-pyridin-3-yl]-phenyl}-[(2S)-2-pyrrolidin-1-ylmethyl-pyrrolidin-1-yl]-methanone]",1.36 µM
6,"Nc1ncc(-c2ccc(OCC(=O)O)cc2)cc1OCc1c(F)cccc1F [Example I-125, {4-[6-Amino-5-(2,6-difluoro-benzyloxy)-pyridin-3-yl]-phenoxy}-acetic acid]",14.7 µM
7,"Nc1ncc(-c2ccc(OCC(=O)N3CCC[C@@H]3CN3CCCC3)cc2)cc1OCc1c(F)cccc1F [Example I-126, 2-{4-[6-Amino-5-(2,6-difluoro-benzyloxy)-pyridin-3-yl]-phenoxy}-1-[(2R)-2-pyrrolidin-1-ylmethyl-pyrrolidin-1-yl]-ethanone]",3.58 µM
8,"Nc1ncc(-c2ccc(OCC(=O)N3CCC[C@H]3CN3CCCC3)cc2)cc1OCc1c(F)cccc1F [Example I-127, 2-{4-[6-Amino-5-(2,6-difluoro-benzyloxy)-pyridin-3-yl]-phenoxy}-1-[(2S)-2-pyrrolidin-1-ylmethyl-pyrrolidin-1-yl]-ethanone]",5.43 µM
9,"Nc1ncc(-c2ccc(O)cc2)cc1OCc1c(F)cccc1Cl [Example I-128, 4-[6-Amino-5-(2-chloro-6-fluoro-benzyloxy)-pyridin-3-yl]-phenol]",3.99 µM
10,"Nc1ncc(-c2ccc(O)cc2)cc1OCc1ccc(F)cc1Cl [Example I-129, 4-[6-Amino-5-(2-chloro-4-fluoro-benzyloxy)-pyridin-3-yl]-phenol]",19 µM
11,"Nc1ncc(-c2ccc(O)cc2)cc1OCc1ccc(Cl)cc1Cl [Example I-130, 4-[6-Amino-5-(2,4-dichloro-benzyloxy)-pyridin-3-yl]-phenol]",9 µM and > 20 µM
12,"N#Cc1ccccc1COc1cc(-c2ccc(O)cc2)cnc1N [Example I-131, 2-[2-Amino-5-(4-hydroxy-phenyl)-pyridin-3-yloxymethyl]-benzonitrile]",19 µM
13,"Nc1ncc(-c2ccc(O)cc2)cc1OCc1ccccc1C(F)(F)F [Example I-132, 4-[6-Amino-5-(2-trifluoromethyl-benzyloxy)-pyridin-3-yl]-phenol]",3.67 µM
14,"Nc1ncc(-c2ccc(O)cc2)cc1OCc1ccccc1Cl [Example I-133, 4-[6-Amino-5-(2-chloro-benzyloxy)-pyridin-3-yl]-phenol]",13.8 µM
15,"CC(C)(C)c1ccc(COc2cc(-c3ccc(O)cc3)cnc2N)cc1 [Example I-134, 4 [6-Amino-5-(4-teert-butyl-benzyloxy)-pyridin-3-yl]-phenol]",4 µM
16,"CS(=O)(=O)Nc1ccc(-c2cnc(N)c(OCc3ccccc3C#N)c2)cc1 [Example I-135, N-{4-[6-Amino-5-(2-cyano-benzyloxy)-pyridin-3-yl]-phenyl}-methanesulfonamide]",4.18 µM
17,"CS(=O)(=O)Nc1ccc(-c2cnc(N)c(OCc3ccccc3C(N)=O)c2)cc1 [Example I-136, 2-[2-Amino-5-(4-methanesulfonylamino-phenyl)-pyridin-3-yloxymethyl]-benzamide]",> 20 µM
18,"CS(=O)(=O)Nc1ccc(-c2cnc(N)c(OCc3ccccc3C(=O)O)c2)cc1 [Example I-137, 2-[2-Amino-5-(4-methanesulfonylamino-phenyl)-pyridin-3-yloxymethyl]-benzoic acid]",> 20 µM
19,"CN1CCN(C(=O)c2ccccc2COc2cc(-c3ccc(NS(C)(=O)=O)cc3)cnc2N)CC1 [Example I-138, N-(4-{6-Amino-5-[2-(4-methyl-piperazine-1-carbonyl)-benzyloxy]-pyridin-3-yl}-phenyl)-methanesulfonamide]",> 20 µM
20,"CS(=O)(=O)Nc1ccc(-c2cnc(N)c(OCc3ccccc3C(=O)NCCO)c2)cc1 [Example I-139, 2-[2-Amino-5-(4-methanesulfonylamino-phenyl)-pyridin-3-yloxymethyl]-N-(2-hydroxy-ethyl)-benzamide]",> 20 µM

row,Structure (SMILES),IC50
1,"CC(C)CNC(=O)c1ccccc1COc1cc(-c2ccc(NS(C)(=O)=O)cc2)cnc1N [Example I-140, 2-[2-Amino-5-(4-methanesulfonylamino-phenyl)-pyridin-3-yloxymethyl]-N-isobutyl-benzamide]",> 20 µM
2,"CN(C)[C@H]1CCN(C(=O)c2ccc(-c3cnc(N)c(OCc4c(F)cccc4Cl)c3)cc2)C1 [Example I-144, {4-[6-Amino-5-(2-chloro-6-fluoro-benzyloxy)-pyridin-3-yl]-phenyl}-[(3S)-3-dimethylamino-pyrrolidin-1-yl]-methanone]",1.7 µM
3,"Nc1ncc(-c2ccc(C(=O)N3CC[C@H](N)C3)cc2)cc1OCc1c(F)cccc1Cl [Example I-145, {4-[6-Amino-5-(2-chloro-6-fluoro-benzyloxy)-pyridin-3-yl]-phenyl}-[(3S)-3-amino-pyrrolidin-1-yl]-methanone]",0.63 µM
4,"CN1CCN(C(=O)c2ccc(-c3cnc(N)c(OCc4c(F)cccc4Cl)c3)cc2)CC1 [Example I-146, {4-[6-Amino-5-(2-chloro-6-fluoro-benzyloxy)-pyridin-3-yl]-phenyl}-(4-methyl-piperazin-1-yl)-methanone]",1.94 µM
5,"CC(=O)N1CCN(C(=O)c2ccc(-c3cnc(N)c(OCc4c(F)cccc4Cl)c3)cc2)CC1 [Example I-147, 1-(4-{4-(6-Amino-5-(2-chloro-6-fluoro-benzyloxy)-pyridin-3-yl]-benzoyl}-piperazin-1-yl)-ethanone]",1.45 µM
6,"Nc1ncc(-c2ccc(C(=O)NCCN3CCOCC3)cc2)cc1OCc1c(F)cccc1Cl [Example I-148, 4-[6-Amino-5-(2-chloro-6-fluoro-benzyloxy)-pyridin-3-yl]-N-(2-morpholin-4-yl-ethyl)-benzamide]",6.4 µM
7,"Nc1ncc(-c2ccc(C(=O)NCCCN3CCOCC3)cc2)cc1OCc1c(F)cccc1Cl [Example I-149, 4-[6-Amino-5-(2-chloro-6-fluoro-benzyloxy)-pyridin-3-yl]-N-(3-morpholin-4-yl-propyl)-benzamide]",5.6 µM
8,"CN(C)[C@H]1CCN(C(=O)c2ccc(-c3cnc(N)c(OCc4ccccc4Cl)c3)cc2)C1 [Example I-153, {4-[6-Amino-5-(2-chloro-benzyloxy)-pyridin-3-yl]-phenyl}-[(3S)-3-dimethylamino-pyrrolidin-1-yl]-methanone]",12.7 µM
9,"Nc1ncc(-c2ccc(C(=O)N3CC[C@H](N)C3)cc2)cc1OCc1ccccc1Cl [Example I-154, {4-[6-Amino-5-(2-chloro-benzyloxy)-pyridin-3-yl]-phenyl}-[(3S)-3-amino-pyrrolidin-1-yl]-methanone]",1.44 µM
10,"CN1CCN(C(=O)c2ccc(-c3cnc(N)c(OCc4ccccc4Cl)c3)cc2)CC1 [Example I-156, {4-[6-Amino-5-(2-chloro-benzyloxy)-pyridin-3-yl]-phenyl}-(4-methyl-piperazin-1-yl)-methanone]",2.1 µM
11,"CC(=O)N1CCN(C(=O)c2ccc(-c3cnc(N)c(OCc4ccccc4Cl)c3)cc2)CC1 [Example I-157, 1-(4-{4-[6-Amino-5-(2-chloro-benzyloxy)-pyridin-3-yl]-benzoyl}-piperazin-1-yl)-ethanone]",3.8 µM
12,"Nc1ncc(-c2ccc(C(=O)NCCN3CCOCC3)cc2)cc1OCc1ccccc1Cl [Example I-158, 4-[6-Amino-5-(2-chloro-benzyloxy)-pyridin-3-yl]-N-(2-morpholin-4-yl-ethyl)-benzamide]",8.9 µM
13,"Nc1ncc(-c2ccc(C(=O)NCCCN3CCOCC3)cc2)cc1OCc1ccccc1Cl [Example I-159, 4-[6-Amino-5-(2-chloro-benzyloxy)-pyridin-3-yl]-N-(3-morpholin-4-yl-propyl)-benzamide]",4.5 µM
14,"CN(C)[C@H]1CCN(C(=O)c2ccc(-c3cnc(N)c(OCc4ccccc4C#N)c3)cc2)C1 [Example I-163, 2-{2-Amino-5-[4-((3S)-3-dimethylamino-pyrrolidine-1-carbonyl)-phenyl]-pyridin-3-yloxymethyl}-benzonitrile]",> 20 µM
15,N#Cc1ccccc1COc1cc(-c2ccc(C(=O)N3CC[C@H](N)C3)cc2)cnc1N [Example I-164],2.05 µM
16,"CN1CCN(C(=O)c2ccc(-c3cnc(N)c(OCc4ccccc4C#N)c3)cc2)CC1 [Example I-166, 2-{2-Amino-5-[4-(4-methyl-piperazine-1-carbonyl)-phenyl]-pyridin-3-yloxymethyl}-benzonitrile]",3.2 µM
17,"CC(=O)N1CCN(C(=O)c2ccc(-c3cnc(N)c(OCc4ccccc4C#N)c3)cc2)CC1 [Example I-167, 2-{5-[4-(4-Acetyl-piperazine-1-carbonyl)-phenyl]-2-amino-pyridin-3-yloxymethyl}-benzonitrile]",5.7 µM
18,"N#Cc1ccccc1COc1cc(-c2ccc(C(=O)NCCN3CCOCC3)cc2)cnc1N [Example I-169, 4-[6-Amino-5-(2-cyano-benzyloxy)-pyridin-3-yl]-N-(2-morpholin-4-yl-ethyl)-benzamide]",8.6 µM
19,"N#Cc1ccccc1COc1cc(-c2ccc(C(=O)NCCCN3CCOCC3)cc2)cnc1N [Example I-170, 4-[6-Amino-5-(2-cyano-benzyloxy)-pyridin-3-yl]-N-(3-morpholin-4-yl-propyl)-benzamide]",17.3 µM
20,"CN(C)[C@H]1CCN(C(=O)c2ccc(-c3cnc(N)c(OCc4ccc(Cl)cc4Cl)c3)cc2)C1 [Example I-174, {4-[6-Amino-5-(2,4-dichloro-benzyloxy)-pyridin-3-yl]-phenyl}-[(3S)-3-dimethylamino-pyrrolidin-1-yl]-methanone]",0.8 µM
